Experimental data published in paper PMC12390684 (Viruses, 2025).

Molecular target: IN-GCN2 interaction (6xHis-IN / GST-GCN2) (UniProt P04585+Q9P2K8)
Experiment: biochemical
Format: binding, HIV-1 IN; human GCN2
Settings: screen, single dose 100 µM, single replicate; residual AlphaLISA signal normalized to DMSO control

Sequence of IN-GCN2 interaction (6xHis-IN / GST-GCN2) (Q9P2K8 192-1024, other chains not shown): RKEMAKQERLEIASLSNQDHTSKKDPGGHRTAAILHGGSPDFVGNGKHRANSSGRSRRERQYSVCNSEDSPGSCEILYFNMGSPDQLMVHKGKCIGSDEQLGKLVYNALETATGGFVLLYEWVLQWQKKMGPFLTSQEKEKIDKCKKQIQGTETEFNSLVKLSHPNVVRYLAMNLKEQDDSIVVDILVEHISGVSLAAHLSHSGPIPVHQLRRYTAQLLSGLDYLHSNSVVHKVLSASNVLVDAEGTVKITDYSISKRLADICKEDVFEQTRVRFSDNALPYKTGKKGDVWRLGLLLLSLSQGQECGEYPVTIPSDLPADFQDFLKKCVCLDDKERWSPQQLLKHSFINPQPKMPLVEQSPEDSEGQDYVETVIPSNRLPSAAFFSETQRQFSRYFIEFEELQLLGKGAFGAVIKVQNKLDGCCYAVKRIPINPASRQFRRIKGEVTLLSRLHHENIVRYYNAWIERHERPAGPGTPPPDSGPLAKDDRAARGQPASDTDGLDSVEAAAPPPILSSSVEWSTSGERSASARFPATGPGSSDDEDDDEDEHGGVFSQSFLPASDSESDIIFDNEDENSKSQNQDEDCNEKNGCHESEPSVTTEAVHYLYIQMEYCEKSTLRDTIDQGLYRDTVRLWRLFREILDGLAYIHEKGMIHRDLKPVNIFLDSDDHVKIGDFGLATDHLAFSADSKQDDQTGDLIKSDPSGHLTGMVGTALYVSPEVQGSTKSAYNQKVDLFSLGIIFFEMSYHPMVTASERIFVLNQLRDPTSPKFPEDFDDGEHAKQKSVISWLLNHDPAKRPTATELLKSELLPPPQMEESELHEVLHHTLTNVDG

Row | Structure (SMILES) | IN-GCN2 interaction (%)
1 | CC1CCOC(=O)/C=C/C=C/C(=O)OC2CC3OC4C5OC5(C)C(O)CC4(COC(=O)C1O)C2(C)C31CO1 (stereo not shown) [NSC328166] | 102.91
2 | COc1c(OC)c2c3c(ncc(OC)c3c1OC)C(=O)c1ccccc1-2 [NSC785150] | 58.33
3 | C[C@H]1O[C@H](OC2[C@@H](O)[C@@H](O)C(O)[C@H](O)[C@H]2O)[C@@H](N)C[C@@H]1N=C(N)C(=O)O (stereo partly shown) [NSC100858] | 98.15
4 | COc1cc2c3c(c1O)Oc1ccc(cc1)C[C@@H]1c4c(cc(OC)c(OC)c4Oc4ccc(cc4)C[C@@H]3N(C)CC2)CCN1C [NSC785173] | 45.72
5 | COc1ccc2c(c1OC)C(=O)O[C@@H]2[C@H]1c2c(cc3c(c2OC)OCO3)CCN1C [NSC5366] | 132.74
6 | CN(N=O)C(=O)N[C@@H](C=O)[C@@H](O)[C@H](O)[C@H](O)CO [NSC85998] | 75.18
7 | Nc1ncnc2c1ncn2[C@@H]1C=C(CO)[C@@H](O)[C@H]1O [NSC316458] | 111.58
8 | CCCCCc1cc(O)cc2c1Oc1cc(O)cc(C(=O)CCCC)c1C(=O)O2 [NSC31867] | 101.08
9 | O=C(O)/C=C(/CC(=O)O)C(=O)O [NSC7616] | 85.71
10 | COc1cc2c3cc1Oc1c(O)c(OC)cc4c1[C@H](Cc1ccc(cc1)Oc1cc(ccc1O)C[C@H]3N(C)CC2)N(C)CC4 [NSC93674] | 63.45
11 | CO[C@@H](/C(C)=C/C=C/C(C)=C/c1coc(C)n1)[C@@H](C)[C@@H]1C[C@H](O)[C@@]2(C)O[C@@H]2/C=C/[C@@H](C)[C@H]2C[C@H](CC(=O)O2)C[C@@H]2O[C@H]2C(=O)O1 [NSC332598] | 94.06
12 | O=c1oc2cc(O)ccc2c2oc3cc(O)ccc3c12 [NSC22842] | 123.61
13 | CCCCCCCCCCCCCCCCCCOCC(O)CO (stereo not shown) [NSC284200] | 138.26
14 | C[C@@H]1[C@H](O)[C@@H](C)/C=C/C=C/CC/C=C/C=C/C=C/C=C/C(O[C@H]2O[C@H](C)[C@@H](O)[C@H](N)[C@@H]2O)CC2O[C@](O)(CC(O)C(O)CCC(O)CC(O)CC(O)CC(=O)O[C@H]1C)CC(O)C2C(=O)O (stereo partly shown) [NSC150817] | 68.70
15 | C[C@]12CCC(=O)[C@](C)(CO)[C@@H]1CC[C@@]13C[C@@H](CC[C@@H]12)[C@@H](C(=O)O)C3 [NSC83439] | 107.59
16 | COc1cc2c(c(OC)c1OC)-c1ccc(OC)c(=O)cc1[C@@H](NC(=O)c1ccccc1)CC2 [NSC33410] | 67.25
17 | c1ccc2c(c1)cc1c3c(cc4c(c32)OCO4)CCN1 [NSC785156] | 39.07
18 | O=c1ccn([C@H]2C[C@H](O)[C@@H](CO)O2)c(=O)[nH]1 [NSC23615] | 82.13
19 | COc1cc(O)c(C(C)=O)c2c1C=CC(C)(C)O2 [NSC14135] | 87.24
20 | C=C1C(=O)OC2CC1C(O)C/C(C)=C/CC/C(C)=C/C(O)CC2C (stereo not shown) [NSC210236] | 107.44
21 | COc1cc2c(cc1OC)C(c1cc(OC)c(OC)c(OC)c1)C1(O)C(=O)OCC1(O)C2 (stereo not shown) [NSC50132] | 86.33
22 | COC1C(=O)CCC2(CO2)C1(O)C1(C)OC1CC=C(C)C (stereo not shown) [NSC141538] | 103.23

Row | Structure (SMILES) | IN-GCN2 interaction (%)
23 | CO[C@H]1/C=C\C=C(/C)C(=O)NC2=CC(=O)C(N)=C(C[C@@H](C)C[C@H](OC)[C@H](O)[C@@H](C)/C=C(\C)[C@@H]1OC(N)=O)C2=O [NSC255109] | 108.78
24 | COc1cc([C@@H]2c3cc4c(cc3[C@@H](O[C@@H]3O[C@@H]5CO[C@@H](c6cccs6)O[C@H]5[C@H](O)[C@H]3O)[C@H]3COC(=O)[C@H]23)OCO4)cc(OC)c1O [NSC122819] | 96.83
25 | CC(C)[C@H]1CC[C@@](C)(C(=O)O)C1 [NSC8973] | 89.12
26 | CNC[C@H](O)c1ccc(O)c(O)c1 [NSC62786] | 108.20
27 | C/C=C/c1cc2c(c(=O)o1)C(=O)[C@@H](O)[C@H](C)O2 [NSC118343] | 125.37
28 | CC1=C(C)C(=O)O[C@@H]([C@](C)(O)[C@]2(O)CC[C@@]3(O)[C@@H]4C[C@H]5O[C@]56CC=CC(=O)[C@]6(C)[C@H]4CC[C@]23C)C1 [NSC179834] | 38.70
29 | CN(C)c1ccc2c(SCC(=O)OCC(=O)[C@@]3(O)CC[C@H]4[C@@H]5CCC6=CC(=O)C=C[C@]6(C)[C@H]5C(=O)C[C@@]43C)c3ccc(N(C)C)cc3nc2c1 [NSC337851] | 15.16
30 | CC1CCC2C(C)C3C(CC4C5CC=C6CC(OC7OC(CO)C(O)C(OC8OC(CO)C(O)C(O)C8O)C7OC7OC(C)C(O)C(O)C7O)CCC6(C)C5CCC43C)N2C1.Cl (stereo not shown) [NSC35611] | 109.39
31 | NC(Cc1cc(I)c(O)c(I)c1)C(=O)O (stereo not shown) [NSC4143] | 75.41
32 | CO/N=C1\CC(C)N2C(=O)C(C(C)C)NC(=O)C(NC(=O)c3c4nc5c(C(=O)NC6C(=O)NC(C(C)C)C(=O)N7C(C)CC(O)C7C(=O)N(C)CC(=O)N(C)C(C(C)C)C(=O)OC6C)ccc(C)c5oc-4c(C)c(=O)c3N)C(CO)OC(=O)C(C)N(C)C(=O)CN(C)C(=O)C12 (stereo not shown) [NSC237671] | 81.33
33 | COc1cc2c3c(c1OC)-c1cc4c(cc1C[C@@H]3N(C)CC2)OCO4 [NSC785161] | 55.76
34 | CC[C@H](C)[C@@H]([C@@H](CC(=O)N1CCC[C@H]1[C@H](OC)[C@@H](C)C(=O)N[C@@H](Cc1ccccc1)c1nccs1)OC)N(C)C(=O)[C@@H](NC(=O)[C@H](C(C)C)N(C)C)C(C)C [NSC376128] | 96.15
35 | COc1cc([C@@H]2c3cc4c(cc3[C@H](O)[C@H]3COC(=O)[C@@H]23)OCO4)cc(OC)c1OC [NSC36407] | 109.04
36 | CCCCCC[C@@H](O)C/C=C\CCCCCCCC(=O)[O-].[Na+] [NSC2835] | 143.81
37 | Nc1ncnc2c1ncn2[C@@H]1O[C@H](COP(=O)(O)O)[C@@H](O)[C@H]1O [NSC20264] | 82.61
38 | COc1ccc(/C=C/C(=O)c2c(OC)cc(OC)c(OC)c2O)cc1 [NSC19038] | 50.51
39 | CO[C@@H]1C[C@@H](C[C@H]2CC[C@H](C)[C@H]([C@@H](C)C(=O)[O-])O2)O[C@]2(O[C@](C)([C@H]3CC[C@@](C)([C@@H]4O[C@@H]([C@H]5O[C@@](O)(CO)[C@H](C)C[C@@H]5C)C[C@@H]4C)O3)C[C@H]2C)[C@@H]1C.[Na+] [NSC292567] | 95.66
40 | COc1cc([C@H]2c3cc(O)c(OC)cc3C[C@H]3C(=O)OC[C@H]23)ccc1O [NSC4586] | 86.55
41 | COc1c(O)ccc2c1CN1CCc3cc4c(cc3C1C2)OCO4 (stereo not shown) [NSC123389] | 87.65
42 | COc1cc2c(cc1OC)[C@@]13CCN4CC5=CCO[C@H]6CC(=O)N2[C@H]1[C@H]6[C@H]5C[C@]43O [NSC99794] | 103.59
43 | O[C@@H]1[C@@H](O)[C@@H](O)CN2CC[C@H](O)[C@@H]12 [NSC614552] | 134.45
